In ChEMBL document CHEMBL1275562, “Incidence and characteristics of vancomycin nonsusceptible strains of methicillin-resistant Staphylococcus aureus at Hershey Medical Center” (2008):
Values after ≈ are worked out from the molar mass of the structure shown.

Legend:
Assay type in all cases: functional
Staphylococcus aureus [1] = test: Antimicrobial activity against vancomycin-intermediate Staphylococcus aureus SA770 after 48 hrs by macro Etest method; details: SA770, 48 h
Staphylococcus aureus [2] = test: Antimicrobial activity against vancomycin-intermediate Staphylococcus aureus SA1287 after 48 hrs by macro Etest method; details: SA1287, 48 h
Staphylococcus aureus [3] = test: Antimicrobial activity against vancomycin-intermediate Staphylococcus aureus SA1984 after 48 hrs by macro Etest method; details: SA1984, 48 h
Staphylococcus aureus [4] = test: Antimicrobial activity against heterogeneous vancomycin-intermediate Staphylococcus aureus SA618 after 48 hrs by macro Etest method; details: SA618, 48 h
Staphylococcus aureus [5] = test: Antimicrobial activity against heterogeneous vancomycin-intermediate Staphylococcus aureus SA873 after 48 hrs by macro Etest method; details: SA873, 48 h
Staphylococcus aureus [6] = test: Antimicrobial activity against vancomycin-susceptible Staphylococcus aureus SA662 after 48 hrs by macro Etest method; details: SA662, 48 h
Staphylococcus aureus [7] = test: Antimicrobial activity against vancomycin-susceptible Staphylococcus aureus SA2089 after 48 hrs by macro Etest method; details: SA2089, 48 h

| Compound | MIC (Staphylococcus aureus [1]) [µg/mL] | MIC (Staphylococcus aureus [2]) [µg/mL] | MIC (Staphylococcus aureus [3]) [µg/mL] | MIC (Staphylococcus aureus [4]) [µg/mL] | MIC (Staphylococcus aureus [5]) [µg/mL] | MIC (Staphylococcus aureus [6]) [µg/mL] | MIC (Staphylococcus aureus [7]) [µg/mL] |
| --- | --- | --- | --- | --- | --- | --- | --- |
| CC(=O)N[C@@H]1[C@H](Oc2c3cc4cc2Oc2ccc(cc2Cl)[C@@H](O[C@@H]2O[C@@H](CO)[C@@H](O)[C@H](O)[C@@H]2NC(C)=O)[C@@H]2NC(=O)[C@H](NC(=O)[C@@H]4NC(=O)[C@H]4NC(=O)[C@@H](Cc5ccc(c(Cl)c5)O3)NC(=O)[C@H](N)c3ccc(O)c(c3)Oc3cc(O)cc4c3)c3ccc(O)c(c3)-c3c(O[C@H]4O[C@H](CO)[C@@H](O)[C@@H](O)[C@@H]4O)cc(O)cc3[C@@H](C(=O)O)NC2=O)O[C@@H](CO)[C@@H](O)[C@@H]1O | 24 (≈ 13.6 µM) | 8 (≈ 4.53 µM) | 8 (≈ 4.53 µM) | 24 (≈ 13.6 µM) | 12 (≈ 6.79 µM) | 12 (≈ 6.79 µM) | 12 (≈ 6.79 µM) |
| CN[C@H](CC(C)C)C(=O)N[C@H]1C(=O)N[C@@H](CC(N)=O)C(=O)N[C@H]2C(=O)N[C@H]3C(=O)N[C@H](C(=O)N[C@H](C(=O)O)c4cc(O)cc(O)c4-c4cc3ccc4O)[C@H](O)c3ccc(c(Cl)c3)Oc3cc2cc(c3O[C@@H]2O[C@H](CO)[C@@H](O)[C@H](O)[C@H]2O[C@H]2C[C@](C)(N)[C@H](O)[C@H](C)O2)Oc2ccc(cc2Cl)[C@H]1O [VANCOMYCIN] | 6 (≈ 4.14 µM) |  | 6 (≈ 4.14 µM) | 3 (≈ 2.07 µM) | 3 (≈ 2.07 µM) |  | 3 (≈ 2.07 µM) |
